This is an account of results in article PMC6162346, “The MALDI-TOF E2/E3 Ligase Assay as Universal Tool for Drug Discovery in the Ubiquitin Pathway” (Cell Chemical Biology, 2018).

Experiment [1] has as its target T1, HOIP (Homo sapiens, UniProt Q96EP0).
T1 construct: HOIP (697-1072) DU22629; GST (cleaved yes); host or cells: E. coli BL21
T1 sequence (Q96EP0 697-1072): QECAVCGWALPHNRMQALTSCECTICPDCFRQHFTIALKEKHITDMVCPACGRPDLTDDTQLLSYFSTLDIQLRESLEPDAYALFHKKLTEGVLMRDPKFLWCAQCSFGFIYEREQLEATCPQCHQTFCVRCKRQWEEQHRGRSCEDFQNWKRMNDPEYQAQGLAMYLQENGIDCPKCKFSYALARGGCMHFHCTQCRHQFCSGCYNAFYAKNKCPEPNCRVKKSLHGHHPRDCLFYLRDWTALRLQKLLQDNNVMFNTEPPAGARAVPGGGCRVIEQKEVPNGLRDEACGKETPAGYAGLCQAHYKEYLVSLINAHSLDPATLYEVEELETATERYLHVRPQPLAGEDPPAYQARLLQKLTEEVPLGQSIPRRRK
Nature of the experiment: MALDI-TOF E2/E3 ligase assay (mono-ubiquitin consumption), UBE1/UBE2L3/HOIP. In kind it is biochemical. To be noted: for remaining activity at 10 µM: read-out: Residual Activity (%), UBE1/UBE2L3/HOIP.

The target in the next experiment is MDM2 (Homo sapiens, UniProt Q00987). Nature of the experiment: MALDI-TOF E2/E3 ligase assay (mono-ubiquitin consumption), UBE1/UBE2D1/MDM2. To be noted: for Inhibition effect on MDM2 with β-mercaptoethanol (BME) present: initial presence of BME in the MDM2 preparation; for remaining activity at 10 µM: read-out: Residual Activity (%), UBE1/UBE2D1/MDM2. In kind it is biochemical.
Sequence of MDM2 (Q00987 whole entry): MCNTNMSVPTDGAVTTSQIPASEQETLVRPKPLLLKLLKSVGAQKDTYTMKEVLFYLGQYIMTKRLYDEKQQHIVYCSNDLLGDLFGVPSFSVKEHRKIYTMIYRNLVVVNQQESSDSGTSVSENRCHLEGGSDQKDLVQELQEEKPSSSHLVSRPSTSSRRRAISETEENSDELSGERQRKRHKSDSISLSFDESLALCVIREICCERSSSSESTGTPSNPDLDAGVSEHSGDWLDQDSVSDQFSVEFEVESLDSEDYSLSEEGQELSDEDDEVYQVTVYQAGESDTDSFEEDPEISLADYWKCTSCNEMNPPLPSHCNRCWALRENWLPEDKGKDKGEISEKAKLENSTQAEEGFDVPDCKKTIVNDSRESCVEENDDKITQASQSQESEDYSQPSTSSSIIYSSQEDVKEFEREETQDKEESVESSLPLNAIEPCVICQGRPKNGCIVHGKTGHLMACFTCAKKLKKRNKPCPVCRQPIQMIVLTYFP

For experiment [2], the target named is T2, ITCH (Homo sapiens, UniProt Q96J02).
T2 construct: ITCH Q96J02 - GST full length; host or cells: E. coli BL21
T2 sequence (Q96J02 whole entry): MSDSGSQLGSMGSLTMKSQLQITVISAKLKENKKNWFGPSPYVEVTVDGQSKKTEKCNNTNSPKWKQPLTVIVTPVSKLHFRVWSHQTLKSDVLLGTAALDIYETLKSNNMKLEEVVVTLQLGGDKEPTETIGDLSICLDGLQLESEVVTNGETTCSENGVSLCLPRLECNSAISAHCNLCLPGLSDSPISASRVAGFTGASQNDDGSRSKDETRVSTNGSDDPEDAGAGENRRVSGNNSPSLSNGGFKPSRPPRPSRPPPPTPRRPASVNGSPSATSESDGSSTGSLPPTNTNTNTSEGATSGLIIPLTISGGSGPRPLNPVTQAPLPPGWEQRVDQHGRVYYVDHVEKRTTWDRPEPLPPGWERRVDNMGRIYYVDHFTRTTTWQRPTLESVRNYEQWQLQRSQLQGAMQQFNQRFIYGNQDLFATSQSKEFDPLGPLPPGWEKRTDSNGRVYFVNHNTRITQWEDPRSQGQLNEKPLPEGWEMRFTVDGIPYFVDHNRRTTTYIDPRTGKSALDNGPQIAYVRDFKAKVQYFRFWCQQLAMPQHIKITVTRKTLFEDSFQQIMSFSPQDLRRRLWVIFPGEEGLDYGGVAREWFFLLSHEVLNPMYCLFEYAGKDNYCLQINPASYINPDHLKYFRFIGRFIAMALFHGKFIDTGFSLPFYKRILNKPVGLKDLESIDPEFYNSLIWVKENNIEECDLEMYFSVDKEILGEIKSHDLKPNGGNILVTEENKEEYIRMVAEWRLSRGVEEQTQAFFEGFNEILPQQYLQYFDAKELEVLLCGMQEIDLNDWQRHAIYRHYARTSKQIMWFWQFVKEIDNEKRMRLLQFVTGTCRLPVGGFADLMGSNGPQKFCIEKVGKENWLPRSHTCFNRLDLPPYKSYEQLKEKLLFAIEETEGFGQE
Nature of the experiment: MALDI-TOF E2/E3 ligase assay (mono-ubiquitin consumption), UBE1/UBE2D1/ITCH. It counts as biochemical. Particulars: for remaining activity at 10 µM: read-out: Residual Activity (%), UBE1/UBE2D1/ITCH.

Another experiment concerns the target T3, UBE2L3 (Homo sapiens, UniProt P68036).
T3 construct: UBE2L3 P68036 UbcH7 - full length; 6His (cleaved yes); host or cells: E. coli BL21 DE3 codon plus
The experiment is described as follows: MALDI-TOF MS of intact E2 protein incubated with inhibitor (covalent modification). Particulars: UBE2L3 3 µM, inhibitor 100 µM, 30 min, room temperature. In kind it is binding.

Experiment [3] has as its system ITCH. More on the design: method as in Rossi et al., 2014. To be noted: irreversible block; ref Rossi et al., 2014; cited from earlier work.
For experiment [4], the target named is T1, HOIP. In kind it is biochemical.
[5] abbreviates: UBE1/UBE2D1/MDM2, compounds pre-incubated 30 min, then ubiquitin 30 or 40 min, four-parameter fit, read-out: IC50 against MDM2.
The mark [6] stands for this setting: UBE1/UBE2D1/ITCH, compounds pre-incubated 30 min, then ubiquitin 30 or 40 min, four-parameter fit, read-out: IC50 against ITCH.
[7] abbreviates: UBE1/UBE2L3/HOIP, compounds pre-incubated 30 min, then ubiquitin 30 or 40 min, four-parameter fit, read-out: IC50 against HOIP.
[8] abbreviates: HTS single point, 10 μM compound.

pIC50: −log10 of the molar value. Several values for one entry are separate records, joined by “and”; a condition that tells them apart may be missing. Equal entries are not always repeated. Entries after “also recorded” stand apart in the source; their conditions may differ. Where two headings read alike, the source gives them in different places. Where only a bound is given, the exact number is not on record here.

T3 sequence (P68036 whole entry): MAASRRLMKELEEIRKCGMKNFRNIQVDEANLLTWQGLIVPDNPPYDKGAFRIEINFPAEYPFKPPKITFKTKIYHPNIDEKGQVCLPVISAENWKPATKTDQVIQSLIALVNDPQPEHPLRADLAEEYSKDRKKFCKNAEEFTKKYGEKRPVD

Regarding `COc1ccc(CCN)cc1OC` [2-(3,4-dimethoxyphenyl) ethanamine], the remaining activity at 10 µM at HOIP [1] worked out at 68.2%.
In the case of `Cc1ccc(S(=O)(=O)/C=C/C#N)cc1` [BAY117082], on MDM2 (Table S4), the “Hill Slope Values for calculated IC50s, MDM2” value was 3.5. The results for the pIC50 on MDM2 (setting [5]), at ITCH [2] (setting [6]) and on HOIP [1] (setting [7]) were 5.62, 4.59 and 5.54, respectively. In addition, on MDM2, the “Inhibition effect on MDM2 with β-mercaptoethanol (BME) present” value is “suppressed”. Besides, the “Hill Slope Values for calculated IC50s, ITCH” value at ITCH [2] (Table S4) is reported as 1.23. The “Hill Slope Values for calculated IC50s, HOIP” value at HOIP [1] (Table S4) was 2.48. Moreover, the “Covalent modification of E2 enzyme UBE2L3 (in words)” value on UBE2L3 was “covalently modified E2 enzymes”. Further, the “Mass shift of UBE2L3 after incubation with inhibitor” value at UBE2L3 was determined as 153 Da.
Consider `CN(C)CCCN1c2ccccc2CCc2ccc(Cl)cc21` [Clomipramine], for which, at MDM2, the “Inhibition of MDM2 at 10 μM (in words)” value was “did not inhibit”. The “Inhibition of ITCH at 10 μM (in words)” value on ITCH [2] is reported as “did not inhibit”. The pIC50 (in general, −log10 of the IC50, conventionally taken in molar units) on ITCH [2] (dose-response curve, final concentrations between 2mM and 7 µM, read-out: IC50 against ITCH) was 3.30 and ~3.30. Further, the “Inhibition of HOIP at 10 μM (in words)” value at HOIP [1] (10 μM) is “did not inhibit”. The “Concentration achieving complete inhibition of ITCH ubiquitin transthiolation” value in the experiment on ITCH [3] is on record as 0.8 mM.
`CN1C(=O)[C@]23CC4=CC=C[C@H](O)[C@H]4N2C(=O)[C@@]1(CO)SS3` [Gliotoxin]: at MDM2, the “Hill Slope Values for calculated IC50s, MDM2” value was 2.18 and the negative logarithm of the IC50 (pIC50) was 6.30. In addition, on ITCH [2], the “Hill Slope Values for calculated IC50s, ITCH” value is recorded as 5.12 and the pIC50 is 4.52. Also, on HOIP [1], the “Hill Slope Values for calculated IC50s, HOIP” value is 2.01 and the negative-log IC50 (pIC50) is 5.55.
Regarding `COc1ccc(C2=N[C@@H](c3ccc(Cl)cc3)[C@@H](c3ccc(Cl)cc3)N2C(=O)N2CCNC(=O)C2)c(OC(C)C)c1` [Nutlin3A, nutlin-3A], the “Inhibitory activity toward ITCH in IC50 curves (in words)” value at ITCH [2] (0–100 μM) is reported as “did not show any inhibitory activity”. For the same compound, the “IC50 against ITCH” value on ITCH [2] (UBE1/UBE2D1/ITCH, compounds pre-incubated 30 min, then ubiquitin 30 or 40 min, four-parameter fit) is given as “ambiguous”. In addition, the “Inhibitory activity toward HOIP in IC50 curves (in words)” value at HOIP [1] (0–100 μM) is “did not show any inhibitory activity”. The “IC50 against HOIP” value against HOIP [1] (UBE1/UBE2L3/HOIP, compounds pre-incubated 30 min, then ubiquitin 30 or 40 min, four-parameter fit) was “ambiguous”.
As to `N#CSc1cc(SC#N)c(N)nc1N` [PR619], the “Hill Slope Values for calculated IC50s, MDM2” value at MDM2 (Table S4) is 1.89. Further, the pIC50 on MDM2 (setting [5]) was 6.22; at ITCH [2] (setting [6]), 6.40; on HOIP [1] (setting [7]), 6.70. Besides, the “Hill Slope Values for calculated IC50s, ITCH” value at ITCH [2] (Table S4) is reported as 3.14. Also, the “Hill Slope Values for calculated IC50s, HOIP” value on HOIP [1] (Table S4) is listed as 7.8. For the same compound, on UBE2L3, the “Covalent modification of E2 enzyme UBE2L3 (in words)” value is “extensively modified UBE2L3; also recorded: covalently modified E2 enzymes”.
Take `CCOC(=O)c1ccc(N2NC(=O)/C(=C/c3ccc([N+](=O)[O-])o3)C2=O)cc1` [PYR41]: the “Hill Slope Values for calculated IC50s, MDM2” value at MDM2 (Table S4) is given as 2.23. In addition, the results for the negative logarithm of the IC50 (pIC50) on MDM2 (setting [5]), at ITCH [2] (setting [6]) and at HOIP [1] (setting [7]) were 5.51, 4.95 and 5.24, respectively. Besides, on MDM2, the “Inhibition effect on MDM2 with β-mercaptoethanol (BME) present” value was “suppressed”. For the same compound, on ITCH [2] (Table S4), the “Hill Slope Values for calculated IC50s, ITCH” value was 1.22. In addition, the “Hill Slope Values for calculated IC50s, HOIP” value on HOIP [1] (Table S4) is reported as 3.73.
In the case of `Cc1[nH]cnc1CN1CCc2c(c3ccccc3n2C)C1=O` [alosetron], at ITCH [2] (setting [8]), the remaining activity at 10 µM came out at 58.2%.
On to `C[C@H]1[C@H](NC(=O)/C(=N\OC(C)(C)C(=O)O)c2csc(N)n2)C(=O)N1S(=O)(=O)O` [aztreonam], for which, on MDM2 (setting [8]), the remaining activity at 10 µM came to 56.7%.
As to `Cn1c(CCCC(=O)O)nc2cc(N(CCCl)CCCl)ccc21` [bendamustine], on MDM2, the negative logarithm of the IC50 (pIC50) is 3.94 and the “Inhibition of MDM2 at 10 μM (in words)” value is reported as “did not significantly affect”. In addition, on ITCH [2], the pIC50 was 4.11 and the “Inhibition of ITCH at 10 μM (in words)” value is “did not significantly affect”. For the same compound, the pIC50 against HOIP [1] (IC50 against HOIP, UBE1/UBE2L3/HOIP, compounds pre-incubated 30 min, then ubiquitin 30 or 40 min, four-parameter fit) is 5.19 and 5.20. Moreover, on HOIP [1] (from IC50 values), the “Fold higher activity against HOIP than against ITCH” value was 12 fold and the “Fold higher activity against HOIP than against MDM2” value is recorded as 18 fold. For the same compound, at HOIP [1], the remaining activity at 10 µM was 6.3%. Besides, on HOIP [4], the “Inhibition of HOIP when paired with UBE2D1 (in words)” value is listed as “inhibits HOIP independently from the E2 in use; also recorded: retained its inhibition power”.
In the case of `CCCCN1CCCCC1C(=O)Nc1c(C)cccc1C` (centres unmarked) [bupivacaine], on HOIP [1] (setting [8]), the remaining activity at 10 µM was 66.2%.
In the case of `CCOc1nc2cccc(C(=O)OC(C)OC(=O)OC3CCCCC3)c2n1Cc1ccc(-c2ccccc2-c2nnn[nH]2)cc1` (centres unmarked) [candesartan cilexetil], on MDM2 (setting [8]), the inhibition (in general, the relative decrease from the control value, in per cent) at 10 µM is above 50% and the remaining activity at 10 µM was 48.6%. For the same compound, the pIC50 at MDM2 (setting [5]) was 5.06.
On to `N[C@@H](C(=O)N[C@@H]1C(=O)N2C(C(=O)O)=C(CSc3c[nH]nn3)CS[C@H]12)c1ccc(O)cc1` [cefatrizine], for which the remaining activity at 10 µM on HOIP [1] (setting [8]) was determined as 49%.
On to `O=c1c2ccccc2[se]n1-c1ccccc1` [ebselen], for which the remaining activity at 10 µM at HOIP [1] (setting [8]) turned out to be 36.2%.
As for `C=C(CC)C(=O)c1ccc(OCC(=O)O)c(Cl)c1Cl` [ethacrynic acid], the remaining activity at 10 µM on MDM2 (setting [8]) is 53.9%; on ITCH [2] (setting [8]) it was 29.5%.
Turning to `OC(Cn1cncn1)(Cn1cncn1)c1ccc(F)cc1F` [fluconazole], the remaining activity at 10 µM on HOIP [1] (setting [8]) was 46.4%.
For the compound `Oc1c(Cl)cc(Cl)c(Cl)c1Cc1c(O)c(Cl)cc(Cl)c1Cl` [hexachlorophene], the remaining activity at 10 µM is 52.4% at MDM2 and 22.2% at ITCH [2].
Turning to `O=C(NCCN1CCOCC1)c1ccc(Cl)cc1` [moclobemide], the remaining activity at 10 µM at HOIP [1] (setting [8]) is 25.9%.
With `Cc1ccnc2c1NC(=O)c1cccnc1N2C1CC1` [nevirapine], the remaining activity at 10 µM on HOIP [1] (setting [8]) amounted to 54.8%.
`NC(=O)c1cnccn1` [pyrazinamide]: at HOIP [1] (setting [8]), the remaining activity at 10 µM was 49.3%.
On to `Oc1ccc(/C=C/c2cc(O)cc(O)c2)cc1` [resveratrol], for which the remaining activity at 10 µM at HOIP [1] (setting [8]) stood at 62.2%.
